Drawing on ChEMBL document CHEMBL2321689, “Design, synthesis and evaluation of novel heterodimers of donepezil and huperzine fragments as acetylcholinesterase inhibitors” (Bioorg Med Chem, 2013), this text covers IC50 and inhibition for 17 compounds.

The source made the active and inactive calls. The calls are words filed in the database; no cut-off is given here.

For orientation: IC50 means the concentration at which inhibition is half-maximal. A low value points to higher potency.

One experiment addresses T1, Acetylcholinesterase (Rattus norvegicus, UniProt P37136).
T1 sequence (P37136 whole entry): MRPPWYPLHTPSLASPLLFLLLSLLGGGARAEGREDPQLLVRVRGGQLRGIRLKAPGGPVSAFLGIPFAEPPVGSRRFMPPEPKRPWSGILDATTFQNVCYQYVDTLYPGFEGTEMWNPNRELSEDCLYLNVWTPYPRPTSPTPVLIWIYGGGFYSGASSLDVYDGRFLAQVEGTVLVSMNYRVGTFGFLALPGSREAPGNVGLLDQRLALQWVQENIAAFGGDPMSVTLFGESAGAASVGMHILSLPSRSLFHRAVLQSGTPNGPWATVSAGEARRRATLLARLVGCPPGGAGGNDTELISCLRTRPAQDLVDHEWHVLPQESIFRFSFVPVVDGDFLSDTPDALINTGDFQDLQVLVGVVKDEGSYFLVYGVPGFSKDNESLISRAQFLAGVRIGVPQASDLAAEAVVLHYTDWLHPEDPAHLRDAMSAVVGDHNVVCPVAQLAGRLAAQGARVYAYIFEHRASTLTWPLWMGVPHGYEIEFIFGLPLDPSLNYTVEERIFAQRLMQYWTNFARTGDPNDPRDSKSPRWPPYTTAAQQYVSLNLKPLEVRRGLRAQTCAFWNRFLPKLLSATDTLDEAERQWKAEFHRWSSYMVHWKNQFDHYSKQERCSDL

A short description of a further experiment: tissue or blood. Particulars: Rattus norvegicus, Sprague-Dawley, Serum.
A further experiment is filed under the species Rattus norvegicus. Put plainly: Inhibition of BuChE in Sprague-Dawley rat serum at 1 mM by Ellman's method. Format: cell-free. A general note: DTNB colorimetry detects thiols as they appear.

Description for Acetylcholinesterase: Inhibition of AChE in Sprague-Dawley rat cortices using acetylthiocholine iodide as substrate by Ellman's method
Description for tissue or blood: Inhibition of BuChE in Sprague-Dawley rat serum by Ellman's method

With `COc1ccc(OCCCCCCN[C@H]2CCCc3[nH]c(=O)ccc32)cc1OC`, the IC50 was found to be 3.95 µM against Acetylcholinesterase and 17.7 µM in the experiment “tissue or blood”.

`COc1ccc(OCCCCCN[C@H]2CCCc3[nH]c(=O)ccc32)cc1OC`: the IC50 against Acetylcholinesterase is 0.59 µM; in the experiment “tissue or blood”, 42 µM.

On to `COc1ccc(C(=O)NCCCN[C@H]2CCCc3[nH]c(=O)ccc32)cc1OC`, for which the results for the IC50 at Acetylcholinesterase and in “tissue or blood” were 88 µM and 139 µM, respectively.

As for `COc1cc2c(cc1OC)C(=O)C(CCCCN[C@@H]1CCCc3[nH]c(=O)ccc31)C2` (mixture of isomers), in the experiment listed under Rattus norvegicus, the inhibition entry is “inactive”. Half-maximal inhibition at Acetylcholinesterase (IC50) was put at 0.53 µM.

`COc1cc2c(cc1OC)C(=O)C(CCCCCCN[C@H]1CCCc3[nH]c(=O)ccc31)C2` (mixture of isomers): in the experiment listed under Rattus norvegicus, the inhibition entry was “inactive”. At Acetylcholinesterase, the IC50 is 0.037 µM.

On to `C/C=C1\[C@H]2C=C(C)C[C@]1(N)c1ccc(=O)[nH]c1C2` [HUPERZINE A], for which the IC50 against Acetylcholinesterase came to 0.065 µM; in “tissue or blood”, 74 µM.

Take `COc1ccc(C(=O)OCCCCN[C@H]2CCCc3[nH]c(=O)ccc32)cc1OC`: the 50% inhibitory concentration (IC50) against Acetylcholinesterase was found to be 4.1 µM; in “tissue or blood”, 15 µM.

Regarding `COc1ccc(C(=O)NCCCCCN[C@H]2CCCc3[nH]c(=O)ccc32)cc1OC`, the IC50 against Acetylcholinesterase was found to be 12 µM; in the experiment “tissue or blood” it was 33 µM.

Turning to `COc1cc2c(cc1OC)C(=O)C(CCCCN[C@H]1CCCc3[nH]c(=O)ccc31)C2` (mixture of isomers), the inhibition result in the experiment filed under Rattus norvegicus is “inactive”. Also, at Acetylcholinesterase, the IC50 turned out to be 0.009 µM.

With `COc1cc2c(cc1OC)C(=O)C(CCCCCCCCCN[C@H]1CCCc3[nH]c(=O)ccc31)C2` (mixture of isomers), the results for the IC50 on Acetylcholinesterase and in “tissue or blood” were 2.6 µM and 678 µM, respectively.

Turning to `COc1ccc(C(=O)OCCCCCN[C@H]2CCCc3[nH]c(=O)ccc32)cc1OC`, the IC50 on Acetylcholinesterase was 7.2 µM; in “tissue or blood”, 460 µM.

For the compound `COc1ccc(C(=O)OCCCCCCCCCN[C@H]2CCCc3[nH]c(=O)ccc32)cc1OC`, the IC50 at Acetylcholinesterase was determined as 9.67 µM; in “tissue or blood”, 308 µM.

Take `COc1cc2c(cc1OC)C(=O)C(CCCN[C@H]1CCCc3[nH]c(=O)ccc31)C2` (mixture of isomers): the inhibition entry in the experiment listed under Rattus norvegicus is “inactive”. This compound also came in with a 50% inhibitory concentration (IC50) on Acetylcholinesterase of 41 µM.

With `COc1cc2c(cc1OC)C(=O)C(CCCCCN[C@H]1CCCc3[nH]c(=O)ccc31)C2` (mixture of isomers), the inhibition result in the experiment filed under Rattus norvegicus is “inactive”. The compound further yielded an IC50 against Acetylcholinesterase of 0.187 µM.

For the compound `COc1cc2c(cc1OC)C(=O)C(CCCCCCCN[C@H]1CCCc3[nH]c(=O)ccc31)C2` (mixture of isomers), the IC50 at Acetylcholinesterase amounted to 1.86 µM; in the experiment “tissue or blood” it was 413 µM.

Regarding `COc1ccc(C(=O)OCCCCCCCN[C@H]2CCCc3[nH]c(=O)ccc32)cc1OC`, the IC50 at Acetylcholinesterase was found to be 8.2 µM; in “tissue or blood” it was 194 µM.

As for `COc1ccc(C(=O)OCCCN[C@H]2CCCc3[nH]c(=O)ccc32)cc1OC`, the values for the IC50 against Acetylcholinesterase and in “tissue or blood” were 162 µM and 860 µM, respectively.
